How the values were obtained:
Aa-Tv = assay: Fungal efficacy on dry paint film (Modified ASTM 5590), pool Aa-Tv; assay type: cell-based, Alternaria alternata + Trichoderma viride
Description: (§1) Each sample was tested in duplicate.
(§2) The SI is calculated based on F. C. Kull et.
(§3) SI value of <1 in the formula indicates a synergism of the blended biocides exists.
(§4) NE=no end point at the concentration tested that will meet the percent inhibition criteria set in each SI calculation.

[1] = system: Chlorella sp., Chlorella kessleri, and Nostoc commune; assay: Algal efficacy on dry paint film (Modified ASTM 5589), pool Cs + Ck + Nc (Ch-No); assay type: cell-based
Description: as §1
(§5) In this synergy study, three pool of mixed algae were prepared as the test inoculum, Gloeocapsa sp. and Oscillatoria sp. a mix of cyanobacteria grown on BG-11 media; Chlorella sp., Chlorella kessleri, and Nostoc commune are unicellular chlorphytes that were mixed and grown on Bold media; Trentepohlia aurea, Tretepohlia odorata, and Calotrix parientina are filamentous algae that were mixed and grown on Bold media.
(§6) The plates were incubated at room temp (25° C.-26° C.) with cyclic exposure to light (OTT-Lite model # OTL4012P, 40 Watt, 26 KLumen) and dark phases, for a period of four weeks. The total area covered was evaluated at the end of each week according to percent area covered in 5% increments.
as §2, §3, §4

[2] = system: Trentepohlia aurea, Tretepohlia odorata, and Calotrix parientina; assay: Algal efficacy on dry paint film (Modified ASTM 5589), pool Cp + To + Ta (Cal-Tre); assay type: cell-based
Description: as §1, §5, §6, §2, §3, §4

Ap-Ch = assay: Fungal efficacy on dry paint film (Modified ASTM 5590), pool Ap-Ch; assay type: cell-based, Aureobasidium pullulans + Cladosporium herbarum
Description: as §1, §2, §3, §4

[3] = system: Gloeocapsa sp. and Oscillatoria sp.; assay: Algal efficacy on dry paint film (Modified ASTM 5589), pool Gs + Os (Os-Gl); assay type: cell-based
Description: as §1, §5, §6, §2, §3, §4

[4] = system: Aspergillus niger mixed with Penicillium funiculosum; assay: Fungal efficacy on dry paint film (Modified ASTM 5590), pool An + Pf; assay type: cell-based; conditions: for % Inhibition: at the total conc for the same composition
Description: as §1, §2, §3, §4

[5] = cited from earlier work
[6] = at the total conc for the same composition

Molecule: c1ccc2[nH]c(-c3cscn3)nc2c1 [TBZ, thiabendazole]
- % Inhibition (Aa-Tv; [6]): 0%
- Total conc (minimum inhibitory concentration chosen for SI) (Aa-Tv; total actives in paint): 3300 pppm
- % Inhibition [1, 6]: 80%
- Total conc (minimum inhibitory concentration chosen for SI) ([1]; total actives in paint): 2475 pppm
- % Inhibition [2, 6]: 80%
- Total conc (minimum inhibitory concentration chosen for SI) ([2]; total actives in paint): 1650 pppm
- % Inhibition (Ap-Ch; [6]): 100%
- Total conc (minimum inhibitory concentration chosen for SI) (Ap-Ch; total actives in paint): 1650 pppm
- % Inhibition [3, 6]: 80%
- Total conc (minimum inhibitory concentration chosen for SI) ([3]; total actives in paint): 3300 pppm
- % Inhibition [4]: 70%
- Total conc (minimum inhibitory concentration chosen for SI) ([4]; total actives in paint): 2475 pppm

Molecule: zinc glyphosate
- % Inhibition [4]: 70%

Molecule: O=C(O)CNCP(=O)(O)O [glyphosate, N-(phosphonomethyl)glycine]
- solubility in water [5]: relatively high solubility in water

— US8691725B2, “Synergistic combination of a glyphosate compound and TBZ” (Dow Global Technologies LLC, priority 2010, dated 2014)
